Assay results taken from patent US11505558B1, “Antiviral heterocyclic compounds” (Enanta Pharmaceuticals, Inc., priority 2019, dated 2022).

The compounds below were run on genotype A, "Long" strain RSV (assay: RSV-A assay (CPE, ATPlite readout in Hep-2 cells)). Conditions: human respiratory syncytial virus, HEp-2, Hep-2 cells, genotype A "Long" strain RSV, MOI 0.1; read-out: Human RSV-A (“Long” strain) EC50.
Type: cell-based
Source text: Hep-2 cells, (originally derived from tumors grown in irradiated-cortisonised weanling rats that had been injected with epidermoid carcinoma tissue from a person's larynx, but later found to be indistinguishable from HeLa cells by PCR DNA analysis), were used for the culturing of genotype A, “Long” strain RSV. Flasks were inoculated with RSV and viral stocks were collected once cytopathic effect (CPE) was greater than […]. Viral stocks in […] sucrose media were snap frozen using liquid nitrogen to increase viral stability. Viral stock titers were quantified by tissue culture infectious dose 50% (TCID50) using 8,000 cells per well and 3-fold viral dilutions across a 96-well plate, cultured for 4 days. Viral stock titers were also quantified by a plaque forming unit assay, as described elsewhere.
Following extensive parameter testing, the final assay is run as follows: Hep-2 cells are seeded into the inner 60 wells of a 96-well plate at 8,000 cells per well in a volume of 50 μL using Growth Media (DMEM without phenol red, 1% L-Glut, 1% Penn/Strep, 1% nonessential amino acids, 10% heat-inactivated FBS). 2-fold serial dilutions of control and test compounds are added to the wells in duplicate in a total volume of 25 μL. Viral stock is then added to the wells at a multiplicity of infection (MOI) of 0.1 in a volume of 25 μL, bringing the total volume of each well to 100 μL. The MOI is calculated using the PFU/mL, or TCID50 if unavailable. Each 96-well plate has a control column of 6 wells with cells and virus but no compound (negative control, max CPE), a column with cells but no compound or virus (positive control, minimum CPE), and a column with no cells or virus or compound (background plate/reagent control). The control wells with cells but no virus are given an additional 25 μL of growth media containing an equal quantity of sucrose as those wells receiving the viral stock in order to keep consistent in media and volume conditions. The outer wells of the plate are filled with 125 μL of moat media (DMEM, 1% Penn/Strep) to act as a thermal and evaporative moat around the test wells. Following a 5-day incubation period, the plates are read using ATPlite (50 uL added per well), which quantifies the amount of ATP (a measure of cell health) present in each well. Assay plates are read using the Envision luminometer. […] EC50 ranges are as follows: A<0.2 μM; B>0.2 μM.
COc1cc(C(=O)NC[C@](O)(c2cc3c(c(-c4ccc(F)cc4)n2)OC[C@]3(C)CNC(=O)c2ccccc2)C(F)(F)F)ccc1OCCO [Example 8] showed an EC50 greater than 0.2 µM. Cn1cc2cc(C(=O)NC[C@](O)(c3cc4c(c(-c5ccc(F)cc5)n3)OC[C@]4(C)C(N)=O)C(F)(F)F)ccc2n1 [Example 637] was tested, and the EC50 was less than 0.2 µM. Cc1cnc(-c2ccc(C(=O)NC[C@](O)(c3cc4c(c(-c5ccc(F)cc5)n3)OC[C@]4(C)C(N)=O)C(F)(F)F)cc2OC2CC2)cn1 [Example 167] showed an EC50 greater than 0.2 µM. COc1cc(C(=O)NC[C@](O)(c2cc3c(c(-c4ccc(F)cc4)n2)OCC3(F)C(N)=O)C(F)(F)F)cc2cc(C(F)(F)F)cnc12 (stereo partly drawn) [Example 671] was tested, and the EC50 was less than 0.2 µM. C[C@]1(C(N)=O)COc2c1cc([C@@](O)(CNC(=O)c1ccc3nc(C(F)(F)F)sc3c1)C(F)(F)F)nc2-c1ccc(F)cc1 [Example 314] showed an EC50 of less than 0.2 µM. Work on C[C@]1(C(N)=O)COc2c1cc([C@@](O)(CNC(=O)c1ccc(-c3ccc(C(F)(F)F)nc3)c(OC3CC3)c1)C(F)(F)F)nc2-c1ccc(F)cc1 [Example 147] yielded an EC50 greater than 0.2 µM. Cc1ncccc1-c1cc(C(=O)NC[C@](O)(c2cc3c(c(-c4ccc(F)cc4)n2)OC[C@]3(C)C(N)=O)C(F)(F)F)ccc1OC1CC1 [Example 97] was tested, and the EC50 was greater than 0.2 µM. For Cc1ncc(C(=O)Nc2cc(C(=O)NC[C@](O)(c3cc4c(c(-c5ccc(F)cc5)n3)OC[C@]4(C)C(N)=O)C(F)(F)F)cc3cccnc23)[nH]1 [Example 402], the EC50 was less than 0.2 µM. C[C@]1(C(N)=O)COc2c1cc([C@@](O)(CNC(=O)c1cc(OC3CC3)c3[nH]c(=O)ccc3c1)C(F)(F)F)nc2-c1ccc(F)cc1 [Example 584] gave an EC50 of less than 0.2 µM. C[C@]1(C(=O)N2CC[C@H](O)C2)COc2c1cc([C@@](O)(CNC(=O)c1cc(OC3CC3)c3ncccc3c1)C(F)(F)F)nc2-c1ccc(F)cc1 [Example 469] showed an EC50 greater than 0.2 µM. Work on Cc1cc(-c2cc(C(=O)NC[C@](O)(c3cc4c(c(-c5ccc(F)cc5)n3)OC[C@]4(C)C(N)=O)C(F)(F)F)ccc2OC2CC2)ccn1 [Example 120] yielded an EC50 of less than 0.2 µM. Compound C[C@]1(C(N)=O)COc2c1cc([C@@](O)(CNC(=O)c1cc(OCC(=O)NC[C@H](O)CO)c3ncccc3c1)C(F)(F)F)nc2-c1ccc(F)cc1 [Example 378] has an EC50 greater than 0.2 µM. With C[C@]1(C(N)=O)COc2c1cc([C@@](O)(CNC(=O)c1cc(OC3(C(N)=O)CC3)c3ncccc3c1)C(F)(F)F)nc2-c1ccc(F)cc1 [Example 381] the EC50 was greater than 0.2 µM. Work on C[C@]1(C(N)=O)COc2c1cc([C@@](O)(CNC(=O)c1cc(NC(=O)C3CNC3)c3ncccc3c1)C(F)(F)F)nc2-c1ccc(F)cc1 [Example 401] yielded an EC50 greater than 0.2 µM. C[C@]1(C(N)=O)COc2c1cc([C@@](O)(CNC(=O)c1ccc3nc(N)sc3c1)C(F)(F)F)nc2-c1ccc(Cl)cc1 [Example 448] gave an EC50 of less than 0.2 µM. With Cc1noc(C)c1-c1cc(C(=O)NC[C@](O)(c2cc3c(c(-c4ccc(F)cc4)n2)OC[C@]3(C)C(N)=O)C(F)(F)F)ccc1OC1CC1 [Example 121] the EC50 was greater than 0.2 µM. C[C@]1(C(N)=O)COc2c1cc([C@@](O)(CNC(=O)c1cc(Oc3ncco3)c3ncccc3c1)C(F)(F)F)nc2-c1ccc(F)cc1 [Example 389] showed an EC50 of less than 0.2 µM. With C[C@]1(C(N)=O)COc2c1cc([C@@](O)(CNC(=O)c1ccc(OC3CC3)c(-c3cncs3)c1)C(F)(F)F)nc2-c1ccc(F)cc1 [Example 129] the EC50 was less than 0.2 µM. In the case of C[C@]1(C(N)=O)COc2c1cc([C@@](O)(CNC(=O)c1ccc(-c3ccccn3)c(OC3CC3)c1)C(F)(F)F)nc2-c1ccc(F)cc1 [Example 155], the EC50 is reported as greater than 0.2 µM. COc1cc(C(=O)NC[C@](O)(c2cc3c(c(-c4ccc(F)cc4)n2)OC[C@]3(C)C(N)=O)C(F)(F)F)ccc1OC(F)F [Example 67] was tested, and the EC50 was less than 0.2 µM. With Cc1ccc2cc(C(=O)NC[C@](O)(c3cc4c(c(-c5ccc(F)cc5)n3)OC[C@]4(C)C(N)=O)C(F)(F)F)cc(O)c2n1 [Example 226] the EC50 was less than 0.2 µM. C[C@]1(C(N)=O)COc2c1cc([C@@](O)(CNC(=O)c1ccc3oc(=O)[nH]c3c1)C(F)(F)F)nc2-c1ccc(F)cc1 [Example 323] gave an EC50 greater than 0.2 µM. With COc1cc(C(=O)NCC(O)(c2cc3c(c(-c4ccc(F)cc4)n2)OC[C@]3(C)C(=O)O)C(F)(F)F)ccc1OCCO (stereo partly drawn) [Example 13] the EC50 was greater than 0.2 µM. For Cc1cc(C)nc(Nc2cc(C(=O)NC[C@](O)(c3cc4c(c(-c5ccc(F)cc5)n3)OC[C@]4(C)C(N)=O)C(F)(F)F)cc3cccnc23)n1 [Example 344], the EC50 was less than 0.2 µM. Compound Cc1cnc2c(OC3CC3)cc(C(=O)NC[C@](O)(c3cc4c(c(-c5ccc(F)cc5)n3)OC[C@]4(C)C(N)=O)C(F)(F)F)cc2c1 [Example 263] has an EC50 of less than 0.2 µM. COc1cc(C(=O)NC[C@](O)(c2cc3c(c(-c4ccc(C)cc4)n2)OC[C@]3(C)C(N)=O)C(F)(F)F)cc2cc(C)cnc12 [Example 259] showed an EC50 of less than 0.2 µM. Compound COc1cc(C(=O)NC[C@](O)(c2cc3c(c(-c4ccc(F)cc4)n2)OC[C@]3(C)C(N)=O)C(F)(F)F)cc2cc(Br)cnc12 [Example 618] has an EC50 of less than 0.2 µM. Compound C[C@]1(C(=O)N2CC[C@@H](O)C2)COc2c1cc([C@@](O)(CNC(=O)c1cc(OC3CC3)c3ncccc3c1)C(F)(F)F)nc2-c1ccc(F)cc1 [Example 468] has an EC50 greater than 0.2 µM. Cc1cnc2c(OCC(N)=O)cc(C(=O)NC[C@](O)(c3cc4c(c(-c5ccc(F)c(Cl)c5)n3)OC[C@]4(C)C(N)=O)C(F)(F)F)cc2c1 [Example 367] gave an EC50 of less than 0.2 µM. Compound C[C@]1(C(N)=O)COc2c1cc([C@@](O)(CNC(=O)c1cc3cc(Cl)ccc3[nH]1)C(F)(F)F)nc2-c1ccc(F)cc1 [Example 589] has an EC50 greater than 0.2 µM. In the case of Cc1cnc2c(OCC(F)F)cc(C(=O)NC[C@](O)(c3cc4c(c(-c5ccc(F)cc5)n3)OC[C@]4(C)C(N)=O)C(F)(F)F)cc2c1 [Example 629], the EC50 is reported as less than 0.2 µM. Work on C[C@]1(C(N)=O)COc2c1cc([C@@](O)(CNC(=O)c1cc(-c3cnc(N)nc3)c3ncccc3c1)C(F)(F)F)nc2-c1ccc(F)cc1 [Example 352] yielded an EC50 of less than 0.2 µM. C[C@]1(C(N)=O)COc2c1cc([C@@](O)(CNC(=O)c1cc(NC(=O)C3CC3)c3ncccc3c1)C(F)(F)F)nc2-c1ccc(F)cc1 [Example 392] gave an EC50 of less than 0.2 µM. Cn1ncc2cc(C(=O)NC[C@](O)(c3cc4c(c(-c5ccc(F)cc5)n3)OC[C@]4(C)C(N)=O)C(F)(F)F)ccc21 [Example 591] gave an EC50 of less than 0.2 µM. COc1cc(C(=O)NC[C@](O)(c2cc3c(c(-c4ccc(F)cc4)n2)OC[C@]3(C)C(=O)NCC2(C)CC2)C(F)(F)F)cc2cccnc12 [Example 76] was tested, and the EC50 was less than 0.2 µM. COc1cc(C(=O)NC[C@](O)(c2cc3c(c(-c4ccc(F)cc4)n2)OC[C@]3(C)C(N)=O)C(F)(F)F)cc2cc3c(nc12)CCCC3 [Example 612] gave an EC50 of less than 0.2 µM. With C[C@]1(C(N)=O)COc2c1cc([C@@](O)(CNC(=O)c1ccc(N3CCCCC3)c(OC3CC3)c1)C(F)(F)F)nc2-c1ccc(F)cc1 [Example 161] the EC50 was greater than 0.2 µM. Work on COc1ccc(C(=O)NC[C@](O)(c2cc3c(c(-c4ccc(F)cc4)n2)OC[C@]3(C)C(N)=O)C(F)(F)F)cc1Cl [Example 330] yielded an EC50 of less than 0.2 µM. Work on CNC(=O)[C@@]1(C)COc2c1cc([C@@](O)(CNC(=O)c1cc(OCC(N)=O)c3ncccc3c1)C(F)(F)F)nc2-c1ccc(F)cc1 [Example 276] yielded an EC50 of less than 0.2 µM. Compound Cc1cc(-c2nc([C@@](O)(CNC(=O)c3cc(OC4CC4)c4ncccc4c3)C(F)(F)F)cc3c2OC[C@]3(C)C(=O)NCC(C)(C)O)ccc1F [Example 504] has an EC50 greater than 0.2 µM. Cc1cnc2c(S(C)(=O)=O)cc(C(=O)NC[C@](O)(c3cc4c(c(-c5ccc(F)cc5)n3)OC[C@]4(C)C(N)=O)C(F)(F)F)cc2c1 [Example 648] gave an EC50 of less than 0.2 µM. COc1cc(C(=O)NCC(O)(c2cc3c(c(-c4ccc(F)cc4)n2)OC[C@]3(C)CNCC2CC2)C(F)(F)F)cc2cccnc12 (stereo partly drawn) [Example 25] was tested, and the EC50 was less than 0.2 µM. COc1cc(C(=O)NC[C@](O)(c2cc3c(c(-c4ccc(F)cc4)n2)OC[C@@]3(F)C(N)=O)C(F)(F)F)ccc1OC1CC1 [Example 667] was tested, and the EC50 was greater than 0.2 µM. Compound CNC(=O)COc1cc(C(=O)NC[C@](O)(c2cc3c(c(-c4ccc(F)cc4)n2)OC[C@]3(C)C(N)=O)C(F)(F)F)cc2cccnc12 [Example 372] has an EC50 of less than 0.2 µM. C[C@]1(C(N)=O)COc2c1cc([C@@](O)(CNC(=O)c1ccc(-c3ccncn3)c(OC3CC3)c1)C(F)(F)F)nc2-c1ccc(F)cc1 [Example 170] gave an EC50 greater than 0.2 µM. With Cc1cnc2c(N3CCNC3=O)cc(C(=O)NC[C@](O)(c3cc4c(c(-c5ccc(F)cc5)n3)OC[C@]4(C)C(N)=O)C(F)(F)F)cc2c1 [Example 659] the EC50 was less than 0.2 µM. C[C@]1(C(N)=O)COc2c1cc([C@@](O)(CNC(=O)c1ccc3c(Cl)nccc3c1)C(F)(F)F)nc2-c1ccc(F)cc1 [Example 247] showed an EC50 of less than 0.2 µM. Compound COc1cc(C(=O)NC[C@](O)(c2cc3c(c(-c4ccc(F)cc4)n2)OC[C@]3(C)C(=O)NCC2CC2)C(F)(F)F)cc2cccnc12 [Example 50] has an EC50 of less than 0.2 µM.
